In patent publication US20230085307A1, “PYRIDAZINONE COMPOUND AND HERBICIDE” (NISSAN CHEMICAL CORPORATION, priority 2019, published 2023):

Legend:
barnyard grass [1] = assay: Test Example 3: herbicidal effect by foliage application, Wagner pot (Table 18, symbol H); type: in vivo, barnyard grass (Echinochloa crus-galli); details: amount of applied herbicide 320 g/ha
Procedure, shortened: (§1)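 Plants were sown in alluvial soil held under 0.1–0.5 cm standing water and grown 14 days in a greenhouse at 25–30 °C. An emulsifiable formulation, water-diluted to the set dose, was then sprayed onto the foliage, and effects were scored three weeks later using previously defined criteria.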

Chinese sprangletop = assay: Test Example 3: herbicidal effect by foliage application, Wagner pot (Table 18, symbol D); type: in vivo, chinese sprangletop (Leptochloa chinensis); details: amount of applied herbicide 320 g/ha
Procedure, shortened: as §1

rice flat sedge = assay: Test Example 3: herbicidal effect by foliage application, Wagner pot (Table 18, symbol E); type: in vivo, rice flat sedge (Cyperus iria); details: amount of applied herbicide 320 g/ha
Procedure, shortened: as §1

southern crabgrass [2] = assay: Test Example 4: herbicidal effect by soil treatment (Table 19, symbol F); type: in vivo, southern crabgrass (Digitaria ciliaris); details: amount of applied herbicide 320 g/ha
Procedure, shortened: (§2)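 Step 1: sow seeds in sterilized diluvial soil, cover ~1.5 cm. Step 2: spray diluted emulsion onto soil surface at predetermined rate. Step 3: greenhouse, 25–30° C, three weeks. Step 4: grade effect on each plant by earlier criteria.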

green foxtail [3] = assay: Test Example 4: herbicidal effect by soil treatment (Table 19, symbol G); type: in vivo, green foxtail (Setaria viridis); details: amount of applied herbicide 320 g/ha
Procedure, shortened: as §2

barnyard grass [4] = assay: Test Example 4: herbicidal effect by soil treatment (Table 19, symbol H); type: in vivo, barnyard grass (Echinochloa crus-galli); details: amount of applied herbicide 320 g/ha
Procedure, shortened: as §2

wild oat [5] = assay: Test Example 4: herbicidal effect by soil treatment (Table 19, symbol I); type: in vivo, wild oat (Avena fatua); details: amount of applied herbicide 320 g/ha
Procedure, shortened: as §2

blackgrass [6] = assay: Test Example 4: herbicidal effect by soil treatment (Table 19, symbol J); type: in vivo, blackgrass (Alopecurus myosuroides); details: amount of applied herbicide 320 g/ha
Procedure, shortened: as §2

Italian ryegrass [7] = assay: Test Example 4: herbicidal effect by soil treatment (Table 19, symbol K); type: in vivo, Italian ryegrass (Lolium multiflorum); details: amount of applied herbicide 320 g/ha
Procedure, shortened: as §2

windgrass [8] = assay: Test Example 4: herbicidal effect by soil treatment (Table 19, symbol L); type: in vivo, windgrass (Apera spica-venti); details: amount of applied herbicide 320 g/ha
Procedure, shortened: as §2

velvetleaf [9] = assay: Test Example 4: herbicidal effect by soil treatment (Table 19, symbol M); type: in vivo, velvetleaf (Abutilon theophrasti); details: amount of applied herbicide 320 g/ha
Procedure, shortened: as §2

redroot pigweed [10] = assay: Test Example 4: herbicidal effect by soil treatment (Table 19, symbol N); type: in vivo, redroot pigweed (Amaranthus retroflexus); details: amount of applied herbicide 320 g/ha
Procedure, shortened: as §2

lambsquarters [11] = assay: Test Example 4: herbicidal effect by soil treatment (Table 19, symbol O); type: in vivo, lambsquarters (Chenopodium album); details: amount of applied herbicide 320 g/ha
Procedure, shortened: as §2

chickweed [12] = assay: Test Example 4: herbicidal effect by soil treatment (Table 19, symbol P); type: in vivo, common chickweed (Stellaria media); details: amount of applied herbicide 320 g/ha
Procedure, shortened: as §2

false cleavers = assay: Test Example 4: herbicidal effect by soil treatment (Table 19, symbol Q); type: in vivo, false cleavers (Galium spurium); details: amount of applied herbicide 320 g/ha
Procedure, shortened: as §2

persian speedwell [13] = assay: Test Example 4: herbicidal effect by soil treatment (Table 19, symbol R); type: in vivo, Persian speedwell (Veronica persica); details: amount of applied herbicide 320 g/ha
Procedure, shortened: as §2

southern crabgrass [14] = assay: Test Example 5: herbicidal effect by foliage application, plastic box (Table 20, symbol F); type: in vivo, southern crabgrass (Digitaria ciliaris); details: foliage application, 320 g/ha, evaluated three weeks after application
Procedure, shortened: (§3)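 Foliar spray test: emulsion formulation diluted in water to a set application rate, sprayed onto 14-day-old plants raised in diluvial soil at 25° C to 30° C under glass. Both herbicidal effect and crop effect rated visually three weeks later.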

green foxtail [15] = assay: Test Example 5: herbicidal effect by foliage application, plastic box (Table 20, symbol G); type: in vivo, green foxtail (Setaria viridis); details: foliage application, 320 g/ha, evaluated three weeks after application
Procedure, shortened: as §3

barnyard grass [16] = assay: Test Example 5: herbicidal effect by foliage application, plastic box (Table 20, symbol H); type: in vivo, barnyard grass (Echinochloa crus-galli); details: foliage application, 320 g/ha, evaluated three weeks after application
Procedure, shortened: as §3

wild oat [17] = assay: Test Example 5: herbicidal effect by foliage application, plastic box (Table 20, symbol I); type: in vivo, wild oat (Avena fatua); details: foliage application, 320 g/ha, evaluated three weeks after application
Procedure, shortened: as §3

blackgrass [18] = assay: Test Example 5: herbicidal effect by foliage application, plastic box (Table 20, symbol J); type: in vivo, blackgrass (Alopecurus myosuroides); details: foliage application, 320 g/ha, evaluated three weeks after application
Procedure, shortened: as §3

Italian ryegrass [19] = assay: Test Example 5: herbicidal effect by foliage application, plastic box (Table 20, symbol K); type: in vivo, Italian ryegrass (Lolium multiflorum); details: foliage application, 320 g/ha, evaluated three weeks after application
Procedure, shortened: as §3

windgrass [20] = assay: Test Example 5: herbicidal effect by foliage application, plastic box (Table 20, symbol L); type: in vivo, windgrass (Apera spica-venti); details: foliage application, 320 g/ha, evaluated three weeks after application
Procedure, shortened: as §3

velvetleaf [21] = assay: Test Example 5: herbicidal effect by foliage application, plastic box (Table 20, symbol M); type: in vivo, velvetleaf (Abutilon theophrasti); details: foliage application, 320 g/ha, evaluated three weeks after application
Procedure, shortened: as §3

redroot pigweed [22] = assay: Test Example 5: herbicidal effect by foliage application, plastic box (Table 20, symbol N); type: in vivo, redroot pigweed (Amaranthus retroflexus); details: foliage application, 320 g/ha, evaluated three weeks after application
Procedure, shortened: as §3

lambsquarters [23] = assay: Test Example 5: herbicidal effect by foliage application, plastic box (Table 20, symbol O); type: in vivo, lambsquarters (Chenopodium album); details: foliage application, 320 g/ha, evaluated three weeks after application
Procedure, shortened: as §3

chickweed [24] = assay: Test Example 5: herbicidal effect by foliage application, plastic box (Table 20, symbol P); type: in vivo, common chickweed (Stellaria media); details: foliage application, 320 g/ha, evaluated three weeks after application
Procedure, shortened: as §3

persian speedwell [25] = assay: Test Example 5: herbicidal effect by foliage application, plastic box (Table 20, symbol R); type: in vivo, Persian speedwell (Veronica persica); details: foliage application, 320 g/ha, evaluated three weeks after application
Procedure, shortened: as §3

## COc1cc(F)ccc1-c1sc2ccc(C(C)=NOC(C)C)cc2c1-c1c(O)c(C)nn(C)c1=O [2-195]
Barnyard grass [1]
  herbicidal effect on H: barnyard grass: 3 (Herbicidal rate of 40% or more and less than 70%)
Chinese sprangletop
  herbicidal effect on D: Chinese sprangletop: 0 (Herbicidal rate of 5% or less (almost no effect))
Rice flat sedge
  herbicidal effect on E: rice flat sedge: 0 (Herbicidal rate of 5% or less (almost no effect))
Southern crabgrass [2]
  F: southern crabgrass, herbicidal effect rating: 0 (Herbicidal rate of 5% or less (almost no effect))
Green foxtail [3]
  G: green foxtail, herbicidal effect rating: 0 (Herbicidal rate of 5% or less (almost no effect))
Barnyard grass [4]
  H: barnyard grass, herbicidal effect rating: 0 (Herbicidal rate of 5% or less (almost no effect))
Wild oat [5]
  I: wild oat, herbicidal effect rating: 0 (Herbicidal rate of 5% or less (almost no effect))
Blackgrass [6]
  J: blackgrass, herbicidal effect rating: 0 (Herbicidal rate of 5% or less (almost no effect))
Italian ryegrass [7]
  K: Italian ryegrass, herbicidal effect rating: 0 (Herbicidal rate of 5% or less (almost no effect))
Windgrass [8]
  L: windgrass, herbicidal effect rating: 0 (Herbicidal rate of 5% or less (almost no effect))
Velvetleaf [9]
  M: velvetleaf, herbicidal effect rating: 0 (Herbicidal rate of 5% or less (almost no effect))
Redroot pigweed [10]
  N: redroot pigweed, herbicidal effect rating: 3 (Herbicidal rate of 40% or more and less than 70%)
Lambsquarters [11]
  O: lambsquarters, herbicidal effect rating: 3 (Herbicidal rate of 40% or more and less than 70%)
Chickweed [12]
  P: chickweed, herbicidal effect rating: 0 (Herbicidal rate of 5% or less (almost no effect))
False cleavers
  Q: false cleavers, herbicidal effect rating: 0 (Herbicidal rate of 5% or less (almost no effect))
Persian speedwell [13]
  R: persian speedwell, herbicidal effect rating: 4 (Herbicidal rate of 70% or more and less than 90%)
Southern crabgrass [14]
  herbicidal effect on F: southern crabgrass (criteria 0-5): 2 (Herbicidal rate of 20% or more and less than 40%)
Green foxtail [15]
  herbicidal effect on G: green foxtail (criteria 0-5): 0 (Herbicidal rate of 5% or less (almost no effect))
Barnyard grass [16]
  herbicidal effect on H: barnyard grass (criteria 0-5): 2 (Herbicidal rate of 20% or more and less than 40%)
Wild oat [17]
  herbicidal effect on I: wild oat (criteria 0-5): 0 (Herbicidal rate of 5% or less (almost no effect))
Blackgrass [18]
  herbicidal effect on J: blackgrass (criteria 0-5): 4 (Herbicidal rate of 70% or more and less than 90%)
Italian ryegrass [19]
  herbicidal effect on K: Italian ryegrass (criteria 0-5): 0 (Herbicidal rate of 5% or less (almost no effect))
Windgrass [20]
  herbicidal effect on L: windgrass (criteria 0-5): 0 (Herbicidal rate of 5% or less (almost no effect))
Velvetleaf [21]
  herbicidal effect on M: velvetleaf (criteria 0-5): 2 (Herbicidal rate of 20% or more and less than 40%)
Redroot pigweed [22]
  herbicidal effect on N: redroot pigweed (criteria 0-5): 3 (Herbicidal rate of 40% or more and less than 70%)
Lambsquarters [23]
  herbicidal effect on O: lambsquarters (criteria 0-5): 4 (Herbicidal rate of 70% or more and less than 90%)
Chickweed [24]
  herbicidal effect on P: chickweed (criteria 0-5): 5 (Herbicidal rate of 90% or more (almost completely withered))
Persian speedwell [25]
  herbicidal effect on R: persian speedwell (criteria 0-5): 5 (Herbicidal rate of 90% or more (almost completely withered))
